According to paper PMC9551036, “A selective and orally bioavailable VHL-recruiting PROTAC achieves SMARCA2 degradation in vivo” (Nature Communications, 2022):
Several values for one entry are separate records, joined by “and”; a condition that tells them apart may be missing. Equal values may be shown once. Read-outs that look alike come from different tables or passages of the source.

Key:
[1] = target: SMARCA2 (Homo sapiens, UniProt P51531); assay: SMARCA2 capillary electrophoresis protein assay in other cell lines (A549, NCI-H1568, HCT116, LU99, HCC-364, HCT-15, HCC4006, SK-N-AS); assay type: cell-based; parameters: endogenous in cells; host or cells: RKO, NCI-H1568, A549, HCT116, LU99, HCC-364, HCT-15, HCC4006, SK-N-AS
Experimental: 130,000–200,000 cells were seeded in 24-well plates and incubated until settled down or overnight. Compounds were dissolved in DMSO and added to cells in indicated concentrations using a digital dispenser following an optional media change. Cells were incubated for 4 or 18 h as indicated. For SMARCA2/4 half-life determination, 150,000 or 200,000 cells were seeded in 24-well plates. The next day, 50 µg/ml cycloheximide (Sigma) was added and cells were incubated for 1–24 h. For SMARCA2/4 re-synthesis measurements, 200,000 cells were seeded in 24-well plates. The next day, 100 nM compound 6 was added for 4 h to degrade SMARCA2/4, and a sample was taken as baseline for normalisation. To allow re-synthesis, a VHL binder (compound 32, 25 or 50 µM) was then added for 3 or 24 h. Medium was removed, cells were washed with PBS and lysed with 80 µl Lysis Buffer (MSD Tris Lysis Buffer (#R60TX-2) + Halt Inhibitor Cocktail (100x) + Benzonase 0.5 µL/ml). Samples were frozen at −80 °C and thawed at room temperature before use. Samples were transferred to a V-bottom plate and insoluble debris was pelleted by centrifugation for 5 min at maximum speed. The supernatant was transferred to a fresh plate. Master Mix and Ladder were prepared according to manufacturer’s instructions for 12–230 kDa Wes Separation Module, 8 × 25 capillary cartridges, Protein Simple #SM-W004 with Anti-Rabbit Detection Module for Wes, Peggy Sue or Sally Sue, Protein Simple #DM-001. 4.8 µl lysate were mixed with 1.2 µl Master Mix to achieve a protein concentration of ~0.5 µg/µl. Antibodies were diluted in Antibody Diluent II (SMARCA2 Sigma #HPA029981 RRID:AB_10602406 1:25–100, SMARCA4 Cell Signalling #49360 clone D1Q7F RRID:AB_2728743 1:15–120 or Abcam #ab110641 clone EPNCIR111A RRID:AB_10861578 1:60, GAPDH Abcam #ab9485 RRID:AB_307275 1:250). Wes plates were prepared and run according to manufacturer’s instructions. Proteins were quantified with accompanying Compass Software. SMARCA2/4 protein levels were normalised to GAPDH. […] Where applicable, curves were fitted using a 4-parametric logistic model.

[2] = Plasma protein binding; assay type: in vitro ADME; conditions: for fraction unbound at 5 h, 3 µmol/L: bovine, read-out: PPB fu 10% Calf; for PPB fu 10% Calf / fraction unbound at 5 h, 3 µmol/L: 10% calf
Experimental: Binding of compound to plasma proteins was determined by equilibrium dialysis of 3 µmol/L compound in plasma (or plasma dilutions in PBS) against PBS through an 8 kDa molecular-weight cut-off cellulose membrane (RED device, Thermo Fisher) at 37 °C for 5 h. After incubation, aliquots from donor and acceptor compartments were precipitated and the concentrations in the supernatants were determined by quantitative LC-MS/MS. Calibration and quality control samples were prepared using blank plasma and internal standard. The fraction unbound was calculated as ratio of the compound concentration in the acceptor compartment to the concentration in the donor compartment.

[3] = Bidirectional permeability measurement in Caco-2 cells; assay type: in vitro ADME; conditions: human
Procedure, shortened: (§1)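 Caco-2 monolayers grown 14–21 days, preincubated 24 h with medium containing 1 µM compound; bidirectional transport sampled up to 2 h, quantified by LC-MS/MS, ± 5 µM zosuquidar (P-gp inhibitor). Papp,AB and Papp,BA from receiver amount, donor C0, area and time; efflux ratio = Papp,BA/Papp,AB (duplicate means). TEER checked per plate.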

[4] = test system: P-gp; assay: as above; assay type: in vitro ADME; conditions: human, Caco-2, pH 7.4, with zosuquidar 5 µM
Procedure, shortened: as §1

[5] = NCI-H1568 (4 h), mean ± SD, read-out: SMARCA2 DC50
[6] = NCI-H1568, 4h, individual replicates, read-out: NCI-H1568 (4h) SMARCA2 DC50
[7] = Caco-2, pH 7.4, Caco-2, b to a, read-out: Caco-2 Pba
[8] = Caco-2, pH 7.4, Caco-2, read-out: Caco-2 Efflux ratio
[9] = Caco-2, pH 7.4, Caco-2, read-out: Caco-2 Pab
[10] = 10% calf plasma dilution in PBS, fraction unbound
[11] = 10% plasma (plasma dilution in PBS)
[12] = Caco-2, pH 7.4, Modified Caco-2, b to a, read-out: Modified Caco-2 Pba
[13] = Caco-2, pH 7.4, Modified Caco-2, read-out: Modified Caco-2 Efflux ratio
[14] = Caco-2, pH 7.4, Modified Caco-2, read-out: Modified Caco-2 Pab

Chain of SMARCA2 (P51531 whole entry): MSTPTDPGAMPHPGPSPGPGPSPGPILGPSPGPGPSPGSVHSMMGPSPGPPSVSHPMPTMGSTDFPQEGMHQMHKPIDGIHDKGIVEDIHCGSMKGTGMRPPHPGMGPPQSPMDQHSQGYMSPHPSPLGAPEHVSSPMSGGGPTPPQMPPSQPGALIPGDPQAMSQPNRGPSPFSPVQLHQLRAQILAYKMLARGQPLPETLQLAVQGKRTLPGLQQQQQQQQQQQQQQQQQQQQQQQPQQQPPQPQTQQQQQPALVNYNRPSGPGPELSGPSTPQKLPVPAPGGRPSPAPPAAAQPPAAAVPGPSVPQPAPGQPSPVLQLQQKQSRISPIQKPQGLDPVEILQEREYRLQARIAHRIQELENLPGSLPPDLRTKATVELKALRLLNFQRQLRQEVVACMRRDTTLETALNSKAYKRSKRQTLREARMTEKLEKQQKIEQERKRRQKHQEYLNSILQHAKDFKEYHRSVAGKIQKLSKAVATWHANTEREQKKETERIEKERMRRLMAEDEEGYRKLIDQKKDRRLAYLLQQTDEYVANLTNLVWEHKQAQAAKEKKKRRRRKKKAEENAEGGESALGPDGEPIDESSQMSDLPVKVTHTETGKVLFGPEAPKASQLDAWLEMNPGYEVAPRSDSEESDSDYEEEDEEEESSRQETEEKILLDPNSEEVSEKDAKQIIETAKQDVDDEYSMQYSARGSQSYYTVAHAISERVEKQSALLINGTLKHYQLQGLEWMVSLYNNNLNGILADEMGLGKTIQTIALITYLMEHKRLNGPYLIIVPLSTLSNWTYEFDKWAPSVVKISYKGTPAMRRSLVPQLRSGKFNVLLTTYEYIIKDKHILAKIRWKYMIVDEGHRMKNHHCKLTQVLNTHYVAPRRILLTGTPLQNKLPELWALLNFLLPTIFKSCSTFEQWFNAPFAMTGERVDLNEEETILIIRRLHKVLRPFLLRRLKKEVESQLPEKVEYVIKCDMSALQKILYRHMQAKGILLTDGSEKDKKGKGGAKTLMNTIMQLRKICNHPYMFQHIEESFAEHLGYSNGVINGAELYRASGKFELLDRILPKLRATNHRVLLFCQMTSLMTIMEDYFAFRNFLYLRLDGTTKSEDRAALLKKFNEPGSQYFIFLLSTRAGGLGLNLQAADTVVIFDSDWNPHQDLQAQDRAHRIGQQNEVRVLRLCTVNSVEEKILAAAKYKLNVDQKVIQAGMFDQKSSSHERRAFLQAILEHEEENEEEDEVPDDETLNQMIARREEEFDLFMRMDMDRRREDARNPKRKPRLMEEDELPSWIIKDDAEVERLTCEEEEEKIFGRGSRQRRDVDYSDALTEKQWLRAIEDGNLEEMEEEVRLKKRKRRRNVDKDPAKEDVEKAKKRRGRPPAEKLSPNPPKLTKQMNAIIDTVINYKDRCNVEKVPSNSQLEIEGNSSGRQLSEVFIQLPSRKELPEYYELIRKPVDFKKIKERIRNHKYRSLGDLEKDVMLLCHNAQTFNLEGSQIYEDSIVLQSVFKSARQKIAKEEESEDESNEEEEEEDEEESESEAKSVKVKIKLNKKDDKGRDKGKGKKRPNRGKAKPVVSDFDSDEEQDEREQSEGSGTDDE

Row | Structure (SMILES) | DC50 [1, 5] | DC50 [1, 6] | PPB fu 10% Calf [2] | PPB fu 10% Calf ([2]; fraction unbound) | Papp B→A at 1 µM [3, 7] | efflux ratio at 2 h, 1 µM [3, 8] | Papp A→B at 1 µM [3, 9] | also measured
1 | Cc1ncsc1-c1ccc([C@H](COC(C)(C)CN2CCC(c3ccc4c(c3)n(C3CCCC3)c3nc(=O)c5c(Br)cccc5n43)CC2)NC(=O)[C@@H]2C[C@@H](O)CN2C(=O)[C@@H](NC(=O)C2(F)CC2)C(C)(C)C)cc1 [compound 28] | 18 ± 13 nM | 6.62 nM and 28.2 nM and 30.1 nM | 1.857% and 2.316% | 2 ± 0.3% | – | – | – | SMARCA2 Dmax ([1]; NCI-H1568 (4 h), mean ± SD): 94 ± 6%; PPB fu 10% Human [2]: <0.224%; PPB fu 10% Mouse [2]: <0.219%; PPB fu 10% Rat [2]: <0.231%; PPB fu Human ([2]; fraction unbound): <0.2%; PPB fu Mouse ([2]; fraction unbound): <0.2%; PPB fu Rat ([2]; fraction unbound): <0.2%
2 | CN1CCC(c2ccc3c(c2)n(C2CCCC2)c2nc(=O)c4c(Br)cccc4n32)CC1 [compound 3] | > 2500 nM | > 2500 nM | – | – | 21.7 ×10⁻⁶ cm/s | 0.768 | 28 ×10⁻⁶ cm/s | –
3 | Cc1ncsc1-c1ccc([C@H](COC(C)CN2CCC(c3ccc4c(c3)n(C3CCCC3)c3nc(=O)c5c(Br)cccc5n43)CC2)NC(=O)[C@@H]2C[C@@H](O)CN2C(=O)[C@@H](NC(=O)C2(F)CC2)C(C)(C)C)cc1 (stereo partly drawn) [compound 9] | 32 ± 17 nM | 54.9 nM and 24.6 nM and 25.2 nM | 8.695% | – | 34 ×10⁻⁶ cm/s | – | 6 ± 2 ×10⁻⁶ cm/s | Dmax ([1]; NCI-H1568 (4 h), mean ± SD): 92 ± 8%; fraction unbound at 5 h, 3 µmol/L [2, 10]: 0.07 ± 0.02; fraction unbound at 5 h, 3 µmol/L [2, 11]: 0.0538; Papp A→B at 1 µM ([4]; Modified Caco-2 + PGPi (Zosuquidar), read-out: Modified Caco-2 + PGPi (Zosuquidar) Pab): 12 ± 2 ×10⁻⁶ cm/s; Papp B→A at 2 h, 1 µM ([4]; Modified Caco-2, b to a, + PGPi (Zosuquidar), read-out: Modified Caco-2 Pba + PGPi (Zosuquidar)): 19 ×10⁻⁶ cm/s; Papp B→A at 1 µM [3, 12]: 170 ×10⁻⁶ cm/s; efflux ratio at 2 h, 1 µM [3, 13]: 44.8; Papp A→B at 1 µM [3, 14]: 4 ± 2 ×10⁻⁶ cm/s
4 | Cc1ncsc1-c1ccc([C@H](COC(C)CN2CCC(c3ccc4c(c3)n(C3CCCC3)c3nc(=O)c5c(Br)cccc5n43)CC2)NC(=O)[C@@H]2C[C@@H](O)CN2C(=O)[C@@H](NC(=O)C2(N(C)C)CC2)C(C)(C)C)cc1 (stereo partly drawn) [compound 10] | – | – | – | – | 26 ×10⁻⁶ cm/s | 4.64 | – | fraction unbound at 5 h, 3 µmol/L [2, 10]: 0.05; fraction unbound at 5 h, 3 µmol/L [2, 11]: 0.0548; Papp B→A at 1 µM [3, 12]: 69 ×10⁻⁶ cm/s; efflux ratio at 2 h, 1 µM [3, 13]: 36.3; Papp A→B at 1 µM [3, 14]: < 1 ×10⁻⁶ cm/s
5 | Cc1ncsc1-c1ccc([C@H](CCC(C)(C)CCN2CCC(c3ccc4c(c3)n(C3CCCC3)c3nc(=O)c5c(Br)cccc5n43)CC2)NC(=O)[C@@H]2C[C@@H](O)CN2C(=O)[C@@H](NC(=O)C2(F)CC2)C(C)(C)C)cc1 [compound 30] | – | – | <0.071% | <0.07% | – | – | – | –
6 | Cc1ncsc1-c1ccc([C@H](CC[C@@H](C)CCN2CCC(c3ccc4c(c3)n(C3CCCC3)c3nc(=O)c5c(Br)cccc5n43)CC2)NC(=O)[C@@H]2C[C@@H](O)CN2C(=O)[C@@H](NC(=O)C2(F)CC2)C(C)(C)C)cc1 [compound 29] | – | – | <0.144% | <0.14% | – | – | – | PPB fu 10% Human [2]: <0.052%; PPB fu 10% Mouse [2]: <0.335%; PPB fu 10% Rat [2]: <0.272%; PPB fu Human ([2]; fraction unbound): <0.05%; PPB fu Mouse ([2]; fraction unbound): <0.34%; PPB fu Rat ([2]; fraction unbound): <0.27%
7 | Cc1ncsc1-c1ccc([C@H](CC[C@H](C)CCN2CCC(c3ccc4c(c3)n(C3CCCC3)c3nc(=O)c5c(Br)cccc5n43)CC2)NC(=O)[C@@H]2C[C@H](O)CN2C(=O)[C@@H](NC(=O)C2(F)CC2)C(C)(C)C)cc1 [compound 12] | – | – | – | – | 8.5 ×10⁻⁶ cm/s | – | – | Papp A→B at 1 µM ([3]; Caco-2, pH 7.4, Caco-2, a to b, read-out: Caco-2 Pab): 3.4 ×10⁻⁶ cm/s
8 | Cc1ncsc1-c1ccc([C@H](COCCN2CCC(c3ccc4c(c3)n(C3CCCC3)c3nc(=O)c5c(Br)cccc5n43)CC2)NC(=O)[C@@H]2C[C@@H](O)CN2C(=O)[C@@H](NC(=O)C2(N(C)C)CC2)C(C)(C)C)cc1 [compound 26] | – | – | – | – | 15.4 ×10⁻⁶ cm/s | – | < 3 ×10⁻⁶ cm/s | –
9 | Nc1cccc2c1c(=O)nc1n(C3CCCC3)c3ccccc3n21 [compound 2] | – | – | – | – | 17 ×10⁻⁶ cm/s | 0.459 | 37 ×10⁻⁶ cm/s | –
10 | Cc1ncsc1-c1ccc(CNC(=O)[C@@H]2C[C@@H](O)CN2C(=O)[C@@H](NC(=O)C2(F)CC2)C(C)(C)C)c(OCCN2CCC(c3ccc4c(c3)n(C3CCCC3)c3nc(=O)c5c(Br)cccc5n43)CC2)c1 [compound 20] | > 2500 nM | > 2500 nM | – | – | – | – | – | –
11 | O=c1nc2n(C3CCCC3)c3ccccc3n2c2cccc(Br)c12 [compound 1] | – | – | – | – | 23.9 ×10⁻⁶ cm/s | 0.774 | 31 ×10⁻⁶ cm/s | –
12 | Cc1ncsc1-c1ccc([C@H](CCCCN2CCC(c3ccc4c(c3)n(C3CCCC3)c3nc(=O)c5c(Br)cccc5n43)CC2)NC(=O)[C@@H]2C[C@@H](O)CN2C(=O)[C@@H](NC(=O)C2(F)CC2)C(C)(C)C)cc1 [compound 25] | – | – | 0.731% | 0.7% | – | – | – | –
